Results as given in article PMC10781691, “Vertical pathway inhibition of receptor tyrosine kinases and BAD with synergistic efficacy in triple negative breast cancer” (NPJ Precision Oncology, 2024).
Read-outs that look alike come from different tables or passages of the source.

What was measured:
[1] = system: BAD phosphorylation at Ser99; assay: Western blot of BAD phosphorylation at Ser99 in TNBC cells; assay type: cell-based, human; details: MDA-MB-231 and BT549 cells; for level of pBADSer99/BAD: 1 μM
MDA-MB-231 xenografts [2] = assay: Orthotopic xenograft, combination study; assay type: in vivo, BALB/c-nude mice; details: for cells of human origin in lung sections (IHC staining of human HPRT): MDA-MB-231-engrafted mice; for % Regression: Complete Response (100%) / % Regression: Partial Response (>50%) / % Regression: Disease Progression: MDA-MB-231 xenograft; for % Regression: Disease Progression: day 21 (xenograft volume >100 mm^3); for lung metastasis incidence (mice with detectable lung hHPRT mRNA, qPCR): n = 6, vehicle 3 out of 6
Protocol: (§1) In vivo bioluminescent imaging was performed to determine the incidence and metastatic burden of luciferase-labeled 4T1 cells. Mice were injected i.p. with 10 mg/ml of D-luciferin (Gold Biotechnology, MO, USA) and imaged using a PerkinElmer IVIS Spectrum system. PDX were generated as previously described by transplanting fresh fragments orthotopically into 8-week-old female nonobese diabetic (NOD)/severe combined immunodeficient (SCID) mice (Beijing Vital River Laboratory Animal Technology Co., Beijing, China) (P1, passage 1)[40]. The P1 xenografts were then fragmented, digested into single-cell suspension and implanted into mammary fat pad (100 μL PBS containing growth factor reduced 50% Matrigel) of NOD/SCID mice. Once orthotopic xenografts reached an approximate size of 100 mm^3, the mice were randomly divided into three groups (n = 8) for single drug studies and six groups (n = 6) for combination studies and Kaplan-Meier (KM) analyses. […] Animal body weight and xenograft size were measured daily using an electronic balance and a digital caliper, respectively. Xenograft volume (mm^3) was calculated by using the formula: 0.52 × length × [width]^2. Complete response (CR) was achieved if the average xenograft volume for the treatment group was unable to be determined for two or more consecutive measurements. Partial response (PR) was achieved if the average xenograft volume reduced to <50 mm^3 for two or more consecutive measurements. After 3-week drug treatment, all mice were sacrificed by CO2 inhalation. Tumor and vital organs were weighed and isolated for further analysis. IHC analysis of xenograft histology sections and quantitative polymerase chain reaction (qPCR) were performed as previously described.
Data represent means ± SD. *P < 0.05, **P < 0.01, and ***P < 0.001.
Data represent means ± SD (n=6). *P < 0.05, **P
< 0.01, and ***P < 0.001.
Abbreviations: ALT/GOT, alanine
aminotransferase/ glutamic oxaloacetic transaminase; AST/GPT, aspartate aminotransferase/
glutamic pyruvic transaminase; CREA, creatinine; UREA, urea; and ALB, albumin. Data
represent means ± SD. *P < 0.05, **P < 0.01, and ***P < 0.001.

4T1-luciferase cells = system: 4T1-luciferase cells
Protocol: Since metastasis is the primary contributor to mortality and poor prognosis for TNBC patients, the therapeutic potential of NCK, TKIs or combined NCK-TKI treatment on TNBC metastasis was further evaluated with an experimental lung metastasis model.
as §1, with “described. […] For PDX, xenograft growth was monitored daily by measurement of the xenograft volume until mice humane endpoint ( ~ 1000 mm^3).” for “described.”
luciferase cell generated metastasis model. Scale bar, 20 µm. (C) Animal weight of each
treatment group was indicated. (D) Changes in relative lung, liver, spleen, heart and kidney
(CRI) or combinations during the study at day 9.

[3] = system: MAPK and PI3K/AKT pathways; assay: Western blot of PI3K/AKT and MAPK pathway proteins; assay type: cell-based, human
Protocol: Next, western blot analyses were performed to determine potential alteration in expression or activity of the target proteins along the MAPK and PI3K/AKT pathways. […] . […] CI analysis method.

MDA-MB-231 cells [4] = system: MDA-MB-231 cells
MDA-MB-231 xenografts [5] = assay: Orthotopic xenograft, combination study; assay type: in vivo; details: Balb/c-nude mice, day 22; NCK 20 mg/kg, OSI 50 mg/kg, CRI 50 mg/kg
MDA-MB-231 cells [6] = assay: CASPASE 3/7 DEVD assay; details: MDA-MB-231, 5 μM NCK
MDA-MB-231 cells [7] = assay: Foci formation (crystal violet); details: MDA-MB-231, 5 μM each
BT549 cells [8] = assay: Foci formation (crystal violet); details: BT549, 5 μM each
BT549 cells [9] = assay: Annexin V-PI apoptosis flow cytometry; details: BT549, 5 μM
Excerpt: Representative flow cytometry plots of Annexin-V and propidium iodide (PI) stained apoptotic
or NPB using flow cytometry analysis. Annexin V-FITC staining is indicated on the x axis, and PI staining is indicated on the y axis. The lower left quadrants represent live cells, the lower right quadrants represent early apoptotic cells, the upper left quadrants represent necrotic cells, and the upper right quadrants display late apoptotic cells. Acquisition of Annexin V and PI data are presented as a percentage (%) in each quadrant. Early apoptotic cells are referred to as Annexin- V positive and late apoptotic cells are referred to as Annexin-V and PI double positive.

MDA-MB-231 cells [10] = assay: Cambridge cancer compound library screen in combination with NCK; assay type: cell-based, human; details: compound at IC25 with NCK 0.1, 1, 10 μM, 72 h, AlamarBlue
Protocol: Cancer compound library screening was performed using IC25 values of anti-cancer compounds (predicted with Genomics of Drug Sensitivity in Cancer (https://www.cancerrxgene.org/) and NCK at 3-point dilutions (0.1, 1, 10 μM) in medium containing 2% FBS to identify potential synergistic combinations. In detail, MDA-MB-231 cells (5 ×10^3) were seeded in 96-well plates in 80 μl of culture medium (2% FBS) and allowed to settle overnight. 24-hour post-seeding, 10 μl of compounds dissolved in culture medium were prepared and added to the plates to reach a final concentration of IC25 of the respective compound. 10 μl of NCK was also added into cell plates to yield a final concentration of 0.1, 1 or 10 μM. After 72-hours of treatment, cell viability was determined with AlamarBlue reagent and fluorescence was measured using a Tecan microplate reader, as previously described[29].

VEGFR2 = details: read-out: potency on VEGFR2; cited from earlier work
[11] = Balb/c-nude mice, day 22, NCK 20 mg/kg, OSI 50 mg/kg, CRI 50 mg/kg
[12] = day 21, NCK 20 mg/kg q.d., OSI-930 20 mg/kg q.d., Crizotinib 50 mg/kg b.i.w.
[13] = serum, NCK 20 mg/kg, OSI 50 mg/kg, CRI 50 mg/kg
[14] = BALB/c mice, day 9, NCK 20 mg/kg, OSI 50 mg/kg, CRI 50 mg/kg

Oc1ccccc1C(c1cccnc1)N1CCN(c2cccc(Cl)c2Cl)CC1 (stereo not drawn) [NCK, 2-((4-(2,3-dichlorophenyl)piperazin-1-yl)(pyridin-3-yl)methyl) phenol]
level of pBADSer99/BAD [1]: significantly decreased the level of pBADSer99/BAD | inhibition of BAD phosphorylation at Ser99 (decreased pBADSer99/BAD ratio), effective concentration ([1]; vs DMSO): ≥ 0.1 μM | Relative Heart Weight (MDA-MB-231 xenografts [2]; [11]): 0.74±0.16% | Relative Kidney Weight (MDA-MB-231 xenografts [2]; [11]): 1.60±0.14% | Relative Lung Weight (MDA-MB-231 xenografts [2]; [11]): 2.39±0.57% | Relative Spleen Weight (MDA-MB-231 xenografts [2]; [11]): 0.77±0.14% | cells of human origin in lung sections (IHC staining of human HPRT) (MDA-MB-231 xenografts [2]): not in the lung sections | % Regression: Complete Response (100%) (MDA-MB-231 xenografts [2]; day 21): 33% | % Regression: Partial Response (>50%) (MDA-MB-231 xenografts [2]; day 21): 17% | % Regression: Disease Progression (MDA-MB-231 xenografts [2]): 50% | MKI67 positivity in xenograft vs vehicle (MDA-MB-231 xenografts [2]; NCK 20 mg/kg q.d.): significantly reduced MKI67 positivity | TUNEL scores in xenograft vs vehicle (MDA-MB-231 xenografts [2]; NCK 20 mg/kg q.d.): increased TUNEL scores | level of pBADSer99 in resected xenograft vs vehicle (MDA-MB-231 xenografts [2]; NCK 20 mg/kg q.d.): reduced the level of pBADSer99 | complete regression of xenografts (MDA-MB-231 xenografts [2]; [12]): 33.33% | complete regression of xenografts (number of xenografts) (MDA-MB-231 xenografts [2]; [12]): 2/6 | lung metastasis incidence (mice with detectable lung hHPRT mRNA, qPCR) (MDA-MB-231 xenografts [2]): 1/6 | ALB (MDA-MB-231 xenografts [2]; [13]): 28.48 ± 3.45 g/L | ALT/GOT (MDA-MB-231 xenografts [2]; [13]): 75.66±23.55 U/L | AST/GPT (MDA-MB-231 xenografts [2]; [13]): 296.04±102.48 U/L | CREA (MDA-MB-231 xenografts [2]; [13]): 23.49 ± 3.02 µmol/L | UREA (MDA-MB-231 xenografts [2]; [13]): 14.01 ± 3.33 mmol/L | lung metastases (bioluminescent signals) vs control (4T1-luciferase cells; 4T1-luciferase metastasis model): significantly abrogated lung metastases | Relative Heart Weight (4T1-luciferase cells; [14]): 0.51±0.07% | Relative Kidney Weight (4T1-luciferase cells; [14]): 1.40±0.07% | Relative Liver Weight (4T1-luciferase cells; [14]): 4.55±0.21% | Relative Lung Weight (4T1-luciferase cells; [14]): 1.70±0.49% | Relative Spleen Weight (4T1-luciferase cells; [14]): 1.54±0.54% | phosphorylated and total proteins of MAPK and PI3K/AKT pathways ([3]; BT549, 1 μM): did not affect | phosphorylated and total proteins of MAPK and PI3K/AKT pathways ([3]; MDA-MB-231, 1 μM): did not affect | Relative Heart Weight (MDA-MB-231 cells [4]; [11]): 0.66±0.08% | Relative Kidney Weight (MDA-MB-231 cells [4]; [11]): 1.72±0.18% | Relative Liver Weight (MDA-MB-231 cells [4]; [11]): 6.57±0.93% | Relative Lung Weight (MDA-MB-231 cells [4]; [11]): 0.82±0.05% | Relative Spleen Weight (MDA-MB-231 cells [4]; [11]): 0.75±0.13% | micro-metastatic nodules in lung (H&E) vs vehicle (MDA-MB-231 cells [4]; MDA-MB-231 metastasis model): significantly reduced lung colonization | Relative Lung Weight (MDA-MB-231 cells [4]; MDA-MB-231 metastasis model, vehicle 0.19 ± 0.02 g): 0.17 ± 0.01 g | Colon Length (MDA-MB-231 xenografts [5]): 9.55±0.84 cm | Relative Liver Weight (MDA-MB-231 xenografts [5]): 5.70±0.38% | CASPASE 3/7 activity vs vehicle (MDA-MB-231 cells [6]): increased CASPASE 3/7 activity | 2D foci formation (MDA-MB-231 cells [7]): significantly attenuated the capacity for foci formation | 2D foci formation (BT549 cells [8]): significantly attenuated the capacity for foci formation | induction of apoptosis (early and late) (BT549 cells [9]): more potent effect than NPB in inducing apoptosis

O=C(Nc1ccc(OC(F)(F)F)cc1)c1sccc1NCc1ccnc2ccccc12 [OSI-930]
level of pBADSer99/BAD [1]: significantly decreased the level of pBADSer99/BAD | cells of human origin in lung sections (IHC staining of human HPRT) (MDA-MB-231 xenografts [2]): not in the lung sections | % Regression: Complete Response (100%) (MDA-MB-231 xenografts [2]; day 21): 0% | % Regression: Partial Response (>50%) (MDA-MB-231 xenografts [2]; day 21): 33% | % Regression: Disease Progression (MDA-MB-231 xenografts [2]): 67% | lung metastasis incidence (mice with detectable lung hHPRT mRNA, qPCR) (MDA-MB-231 xenografts [2]): none of the mice had lung metastasis | ALB (MDA-MB-231 xenografts [2]; [13]): 30.61 ± 0.84 g/L | ALT/GOT (MDA-MB-231 xenografts [2]; [13]): 81.99±27.99 U/L | AST/GPT (MDA-MB-231 xenografts [2]; [13]): 298.22±75.62 U/L | UREA (MDA-MB-231 xenografts [2]; [13]): 12.36 ± 6.01 mmol/L | synergy with NCK in compound library screen (CI, Bliss independence) (MDA-MB-231 cells [10]): low CI (high synergy) | phosphorylated and total proteins of MAPK and PI3K/AKT pathways ([3]; BT549, 1 μM): significantly reduced the level of p-AKT (Ser473)/AKT | phosphorylated and total proteins of MAPK and PI3K/AKT pathways ([3]; MDA-MB-231, 1 μM): significantly inhibited the PI3K/AKT pathway | micro-metastatic nodules in lung (H&E) vs vehicle (MDA-MB-231 cells [4]; MDA-MB-231 metastasis model): significantly reduced lung colonization | Colon Length (MDA-MB-231 xenografts [5]): 9.34±0.67 cm | IC50 (VEGFR2): 9 nM | 2D foci formation (MDA-MB-231 cells [7]): significantly attenuated the capacity for foci formation | 2D foci formation (BT549 cells [8]): significantly attenuated the capacity for foci formation
